Assay results taken from ChEMBL document CHEMBL1201862, “PubChem BioAssay data set” (2004).
Activity calls are given as the source filed them.

How the values were obtained:
[1] = biological target: T1, Sentrin-specific protease 8 (Homo sapiens, UniProt Q96LD8); format: functional
T1 sequence (Q96LD8 whole entry): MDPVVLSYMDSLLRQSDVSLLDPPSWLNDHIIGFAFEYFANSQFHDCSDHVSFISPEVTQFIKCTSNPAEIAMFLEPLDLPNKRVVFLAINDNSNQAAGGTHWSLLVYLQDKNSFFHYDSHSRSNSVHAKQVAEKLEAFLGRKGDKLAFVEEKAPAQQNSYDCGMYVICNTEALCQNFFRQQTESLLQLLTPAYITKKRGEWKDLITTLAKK

[2] = biological target: T1, Sentrin-specific protease 8; format: functional; remark: listed apart in the source
Streptokinase A = biological target: T2, Streptokinase A (Streptococcus pyogenes serotype M1, UniProt P10520); assay: S. pyogenes streptokinase expression inhibitors, potency, dose response, plasminogen activation absorbance, OD405 (AID 1914); format: functional, Streptococcus pyogenes M1 GAS;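 further: secreted streptokinase activity via plasminogen activation per viability signal from cell pellet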
T2 sequence (P10520 whole entry): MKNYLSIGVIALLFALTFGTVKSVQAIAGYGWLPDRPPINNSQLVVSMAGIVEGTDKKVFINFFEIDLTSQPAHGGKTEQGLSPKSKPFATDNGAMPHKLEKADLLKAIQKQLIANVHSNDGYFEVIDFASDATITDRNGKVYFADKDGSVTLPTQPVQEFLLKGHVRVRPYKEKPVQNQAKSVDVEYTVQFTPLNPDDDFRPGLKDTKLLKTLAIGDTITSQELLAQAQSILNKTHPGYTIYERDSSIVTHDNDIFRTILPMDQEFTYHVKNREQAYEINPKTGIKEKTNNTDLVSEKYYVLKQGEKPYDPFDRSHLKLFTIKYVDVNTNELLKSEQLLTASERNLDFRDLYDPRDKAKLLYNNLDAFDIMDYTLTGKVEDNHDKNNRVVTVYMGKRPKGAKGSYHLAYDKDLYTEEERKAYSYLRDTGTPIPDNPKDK

[3] = inhibitors of intracellular T. cruzi replication, confirmation, NIH3T3 host cells, beta-gal luminescence (AID 2044); format: functional, cell-based;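 further: intracellular parasites grown in NIH/3T3 mouse fibroblasts as host cells; luminescent beta-galactosidase reporter signal from transgenic T. cruzi replicating inside host cells; inhibitors lower the luminescence signal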
[4] = cytotoxicity toward NIH3T3 fibroblasts, dose response, counter-screen, cell-based, ATP luminescence, mouse fibroblasts (AID 2010); format: functional;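 further: cells exposed to compound for about 90 hours before reading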
[5] = Luminescence Cell-Based Dose Retest to Confirm Inhibitors of Cancer Stem Cells. [Related pubchem assays (depositor defined):AID2717, AID2721]; format: functional; settings: Homo sapiens
[6] = tested on: Streptococcus sp. 'group A'; assay: growth inhibition of control SK(-) GAS strain, dose response, counter-screen for streptokinase expression inhibitor project, luminescence, kanamycin, BacTiterGlo, confirmation (AID 1900); format: functional, organism-based
Vero = assay: cells; format: functional; settings: Chlorocebus sabaeus
INS1 = assay: beta cell apoptosis inhibitors, cytokine rescue, dose response, luminescence, retest (AID 449756); format: functional, cell-based; settings: Rattus norvegicus;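 further: cell death triggered by IL-1 beta plus TNF-alpha plus IFN-gamma mixture; protective hits raise ATP signal compared with cytokine alone wells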
Streptococcus = assay: Group A Streptococcus viability loss, dose response, counter-screen for streptokinase expression inhibitor project, luminescence, BacTiterGlo (AID 1915); format: functional, organism-based;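 further: potency for reduction of bacterial viability or growth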
Escherichia coli = assay: microbe, parasite or virus in culture
[7] = HIV-1 Env-mediated cell fusion inhibitors, dose response, CCR5-tropic Env (AID 2279); format: functional
Cysteine protease ATG4B = biological target: T3, Cysteine protease ATG4B (Homo sapiens, UniProt Q9Y4P1); format: functional;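 further: Fluorescence-based dose-response confirmation assay measuring inhibition of ATG4B activity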
T3 sequence (Q9Y4P1 whole entry): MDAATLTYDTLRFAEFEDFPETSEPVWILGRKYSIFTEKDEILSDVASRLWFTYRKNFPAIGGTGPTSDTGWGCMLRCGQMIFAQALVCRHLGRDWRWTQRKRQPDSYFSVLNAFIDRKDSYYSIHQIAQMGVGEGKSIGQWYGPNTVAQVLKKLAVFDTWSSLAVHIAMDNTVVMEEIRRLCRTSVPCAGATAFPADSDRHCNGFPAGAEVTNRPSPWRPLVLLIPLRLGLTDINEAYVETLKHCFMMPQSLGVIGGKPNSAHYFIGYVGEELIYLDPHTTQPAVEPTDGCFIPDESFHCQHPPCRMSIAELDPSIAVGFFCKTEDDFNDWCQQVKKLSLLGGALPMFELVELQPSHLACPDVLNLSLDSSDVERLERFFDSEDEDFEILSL

HeLa = assay: HeLa cell cytotoxicity, dose response, cytotoxicity control for MITF activator project, CellTiter-Glo luminescence, cherry-pick samples (AID 540259); format: functional, cell-based; settings: Homo sapiens
Phospholipase A2 = Phospholipase A2 (Homo sapiens, UniProt P04054); format: functional;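 further: confirmatory dose-response counterscreen on phospholipase A2, testing hits that came from an ultra-high-throughput screen for ATG4B inhibitors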
[8] = C. albicans growth with fluconazole, confirmation, fluorescence, retest (AID 2467); format: functional, cell-based
HEK293 = assay: inhibitors of LMP1-driven NF-kB reporter, dose response, cell-based, HEK293, luciferase, cherry-pick (AID 588343); format: functional; settings: Homo sapiens
[9] = biological target: Heat shock protein HSP 90-alpha (Homo sapiens, UniProt P07900); format: functional, organism-based
[10] = NIH-3T3 fibroblast cytotoxicity, dose response, cytotoxicity control, cell-based, fluorescence, Alamar Blue, secondary assay (AID 2327); format: functional;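 further: NIH-3T3 mouse fibroblasts cultured with fluconazole at 8 µg/mL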
[11] = biological target: T4, Corticotropin-releasing factor receptor 2/Corticotropin-releasing factor-binding protein (Homo sapiens, UniProt P24387+Q13324); assay: activators of CRF receptor 2 with binding protein – uHTS hits, confirmation (AID 602473); format: functional; settings: read-out: EC50_Mean
T4 sequence (Q13324 whole entry): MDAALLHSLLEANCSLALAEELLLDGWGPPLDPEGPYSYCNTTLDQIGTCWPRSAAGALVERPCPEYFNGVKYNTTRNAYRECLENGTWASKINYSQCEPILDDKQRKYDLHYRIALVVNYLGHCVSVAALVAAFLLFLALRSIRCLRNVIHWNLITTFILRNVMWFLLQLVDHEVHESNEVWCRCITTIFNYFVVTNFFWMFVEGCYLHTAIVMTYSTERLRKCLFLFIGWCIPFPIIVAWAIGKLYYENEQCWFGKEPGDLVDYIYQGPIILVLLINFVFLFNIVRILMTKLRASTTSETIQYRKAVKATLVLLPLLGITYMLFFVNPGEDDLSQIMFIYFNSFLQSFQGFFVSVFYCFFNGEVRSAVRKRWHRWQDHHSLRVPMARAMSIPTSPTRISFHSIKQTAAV
T4 sequence (P24387 whole entry): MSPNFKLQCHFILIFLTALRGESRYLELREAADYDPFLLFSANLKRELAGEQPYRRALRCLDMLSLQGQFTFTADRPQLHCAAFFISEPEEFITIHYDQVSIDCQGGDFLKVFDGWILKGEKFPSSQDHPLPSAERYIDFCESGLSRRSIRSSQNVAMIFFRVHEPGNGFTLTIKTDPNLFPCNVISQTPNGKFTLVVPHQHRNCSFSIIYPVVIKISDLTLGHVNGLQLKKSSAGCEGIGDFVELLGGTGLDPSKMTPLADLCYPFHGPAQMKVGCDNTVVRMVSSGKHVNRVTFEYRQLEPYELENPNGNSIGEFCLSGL

[12] = biological target: T5, Adenosylmethionine-8-amino-7-oxononanoate aminotransferase (Mycobacterium tuberculosis, UniProt P9WQ81); assay: Mycobacterium tuberculosis BioA enzyme inhibitor Measured in Biochemical System Using Plate Reader - 2163-02_Inhibitor_Dose_CherryPick_Activity.; format: functional, Mycobacterium tuberculosis UT205
T5 sequence (P9WQ81 whole entry): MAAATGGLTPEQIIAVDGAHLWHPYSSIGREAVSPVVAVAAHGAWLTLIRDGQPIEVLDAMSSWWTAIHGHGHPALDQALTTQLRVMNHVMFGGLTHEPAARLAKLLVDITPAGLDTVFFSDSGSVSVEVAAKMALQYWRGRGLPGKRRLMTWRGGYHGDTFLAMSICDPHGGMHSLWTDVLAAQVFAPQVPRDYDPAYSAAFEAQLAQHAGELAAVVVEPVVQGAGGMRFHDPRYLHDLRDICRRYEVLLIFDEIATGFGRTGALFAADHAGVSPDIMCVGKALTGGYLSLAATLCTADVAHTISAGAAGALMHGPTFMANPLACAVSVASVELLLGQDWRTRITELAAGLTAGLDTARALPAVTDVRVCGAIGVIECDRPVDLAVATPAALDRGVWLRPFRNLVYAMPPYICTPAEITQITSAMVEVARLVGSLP

Sequence of Phospholipase A2 (P04054 whole entry): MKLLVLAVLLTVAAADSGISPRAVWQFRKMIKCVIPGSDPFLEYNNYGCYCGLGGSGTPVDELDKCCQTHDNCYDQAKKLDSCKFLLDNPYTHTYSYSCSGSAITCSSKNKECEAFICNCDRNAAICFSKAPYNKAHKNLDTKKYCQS

With `O=C(CS(=O)(=O)Cc1ccccc1)N1CCc2ccccc2C1` the IC50 [1] was 11.4 µM (active) and the IC50 [2] was 6.67 µM (active).

For `O=C(NCc1nc(-c2ccc(C(F)(F)F)cc2)no1)Nc1cc(Cl)cc(Cl)c1`, the EC50 (Streptokinase A) was > 150 µM (not active), the EC50 [3] was 2.43 µM (active) and the EC50 [4] was 4.69 µM (active). For the same compound, the AC50 [5] was 1.53 µM (active), the EC50 [6] was 2.88 µM (active) and the CC50 (Vero) was 8.95 µM (active). The AC50 (INS1) was 7.49 µM (active) and the EC50 (Streptococcus) was 8.49 µM (active).

In the case of `O=C(COC(=O)Cn1cnc2ccccc2c1=O)NCC12CC3CC(CC(C3)C1)C2`, the AC50 (Escherichia coli) is reported as 32.8 µM (active).

With `O=C(O)c1cc(-c2ccc(-c3c(-c4ccc5c(c4)OCO5)noc3-c3ccsc3)cc2)nc2ccccc12` the EC50 (Streptokinase A) was > 150 µM (not active), the IC50 [7] was 37.7 µM (active) and the IC50 (Cysteine protease ATG4B) was 6.81 µM (active). The AC50 (HeLa) was 52.5 µM (active), the EC50 [6] was 1.85 µM (active) and the IC50 (Phospholipase A2) was 2.26 µM (active). For the same compound, the EC50 (Streptococcus) was 3.63 µM (active).

With `CN1CCC(=NNC(=O)C(=O)Nc2cccc(Br)c2)CC1` the AC50 (Escherichia coli) was 65.2 µM (active).

For `O=C(Oc1c(Cl)cc(Cl)c2cccnc12)c1cccc([N+](=O)[O-])c1`, the EC50 [8] was 0.119 µM (active), the AC50 (HEK293) was 30.6 µM (active) and the AC50 [9] was 14.3 µM (active). For the same compound, the EC50 [10] was 5.41 µM (active).

In the case of `COc1ccc(C=Cc2ccc3ccccc3n2)c(OC)c1`, the EC50 [11] is reported as > 53 µM (inactive) and the AC50 (HEK293) is reported as 14.5 µM (active).

In the case of `CCc1cc(-c2nnn(CCC3COCCO3)c2CC)ccc1-c1cn(Cc2ccccc2)nn1` (stereo not drawn), the CC50 (Vero) is reported as 23.7 µM (active).

With `O=C(c1ccncc1)N1CC[C@@H]2[C@H](CO)Nc3ccc(Br)cc3[C@@H]21` the AC50 [12] was 1.17 µM (active).

In the case of `O=C(c1ccncc1)N1CC[C@@H]2[C@H]1c1cc(Br)ccc1N[C@@H]2CO`, the AC50 [12] is reported as 0.894 µM (active).
